Where two headings read alike, the source gives them in different places.
Experiments:
[1] = system: H1975 cells; assay: Cell cycle analysis (FACS), H1975; assay type: cell-based, human
Description: (§2) The cells were fixed in 70% cold ethanol and incubated at −20°C overnight then stained with PI/RNase staining buffer (BD Pharmingen). Flow cytometry was performed using a FACS Calibur (BD), and results were analyzed by ModFit software.

[2] = system: A431 (EGFR wt); assay: Proliferation (CellTiter-Glo), A431; assay type: cell-based, human; conditions: Homo sapiens, A-431; A431, EGFR wt, 72 hours; read-out: GI50
Description: (§3) The human cancer cell lines A549, A431, H3255, H1975, PC-9, HCC827, H23, H460, A549, H358 and H2122 cells were purchased from the American Type Culture Collection (ATCC) (Manassas, VA, USA). […] A549 and A431 were cultured in DMEM media (Corning, USA) with 10% FBS and supplemented with 2% L-glutamine and 1% pen/strep. H3255 was cultured in BEGM media (LONZA, USA) with 10% FBS and supplemented with 2% L-glutamine and 1% pen/strep.
(§4) Cells were grown in 96-well culture plates (2500–3000/well). For adherent cell lines, compounds of various concentrations were added into the plates after cells were cultured for 12 hours. Cell proliferation was determined after treatment with compounds for 72 hours. Cell viability was measured using the CellTiter–Glo assay (Promega, USA), according to the manufacturer's instructions, and luminescence was measured in a multi-label reader (Envision, PerkinElmer, USA). Data were normalized to control groups (DMSO) and represented by the mean of three independent measurements with standard error <20%. GI50 values were calculated using Prism 5.0 (GraphPad Software, San Diego, CA).

[3] = system: H3255 cells; assay: Cell cycle analysis (FACS), H3255; assay type: cell-based, human; conditions: H3255, 24h
Description: as §2

[4] = system: H1975 cells; assay: cells; conditions: Homo sapiens, NCI-H1975, read-out: Relative activity (%)
Description: as §4

[5] = system: PC-9 (EGFR Del19); assay: Proliferation (CellTiter-Glo), PC-9; assay type: cell-based, human; conditions: Homo sapiens; PC-9, EGFR Del19, 72 hours; read-out: GI50
Description: as §3, §4

[6] = system: Akt Thr308 and Ser473 phosphorylation in H1975; assay: Signaling pathway immunoblotting, H1975; assay type: cell-based, human; conditions: H1975, 4 hours
Description: Antibodies were used at 1:1000.
(§5) Cells were then washed with PBS and lysed in cell lysis buffer.

[7] = system: PC-9 xenograft; assay: PC-9 xenograft mouse model; assay type: in vivo, Nude (Nu/Nu) mice; conditions: PC-9 xenograft, 25, 50, 100 mg/Kg BID oral gavage, 22 days
Description: (§1) Tumor diameter was measured 3 times weekly. Tumor volumes (V) were calculated by the equation (V = length × width × width/2). ALL experiments and procedures followed the guidelines of the Institutional Animal Care and Use Committees of National Institue of Biological Sciences, Beijing.

[8] = system: PI3K kinase; assay: PI3K kinases ADP-Glo assay; assay type: biochemical; conditions: Fig. S8
[9] = system: H460 (EGFR wt); assay: Proliferation (CellTiter-Glo), H460; assay type: cell-based, human; conditions: Homo sapiens, NCI-H460; H460, EGFR wt, 72 hours; read-out: GI50
Description: as §3, §4

[10] = system: H358 (EGFR wt); assay: Proliferation (CellTiter-Glo), H358; assay type: cell-based, human; conditions: Homo sapiens, NCI-H358; H358, EGFR wt, 72 hours; read-out: GI50
Description: as §3, §4

[11] = system: HCC827 cells; assay: Cell cycle analysis (FACS), HCC827; assay type: cell-based, human; conditions: HCC827, 24 h
Description: as §2

[12] = system: H1975 (EGFR L858R/T790M); assay: Proliferation (CellTiter-Glo), H1975; assay type: cell-based, human; conditions: Homo sapiens, NCI-H1975; H1975, EGFR L858R/T790M, 72 hours; read-out: GI50
Description: as §3, §4

[13] = system: H23 (EGFR wt); assay: Proliferation (CellTiter-Glo), H23; assay type: cell-based, human; conditions: Homo sapiens; H23, EGFR wt, 72 hours; read-out: GI50
Description: as §3, §4

[14] = system: H2122 (EGFR wt); assay: Proliferation (CellTiter-Glo), H2122; assay type: cell-based, human; conditions: Homo sapiens, NCI-H2122; H2122, EGFR wt, 72 hours; read-out: GI50
Description: as §3, §4

[15] = system: PC-9 cells; assay: Cell cycle analysis (FACS), PC-9; assay type: cell-based, human; conditions: PC-9, 24h
Description: as §2

[16] = system: HCC827 (EGFR Del19); assay: Proliferation (CellTiter-Glo), HCC827; assay type: cell-based, human; conditions: Homo sapiens; HCC827, EGFR Del19, 72 hours; read-out: GI50
Description: as §3, §4

[17] = system: H1975 xenograft; assay: H1975 xenograft mouse model; assay type: in vivo, Nude (Nu/Nu) mice
Description: as §1

[18] = system: H1975 cells; conditions: DMSO = 100
Description: as §4

[19] = system: A549 (EGFR wt); assay: Proliferation (CellTiter-Glo), A549; assay type: cell-based, human; conditions: Homo sapiens; A549, EGFR wt, 72 hours; read-out: GI50
Description: as §3, §4

[20] = system: EGFR Y1068 in PC-9, HCC827, and H3255; assay: EGFR Y1068 auto-phosphorylation in EGFR primary mutant cell lines; assay type: cell-based, human; conditions: range over PC-9, HCC827, and H3255
Description: Antibodies were used at 1:1000.
as §5

[21] = system: H3255 (EGFR L858R); assay: Proliferation (CellTiter-Glo), H3255; assay type: cell-based, human; conditions: Homo sapiens, NCI-H3255; H3255, EGFR L858R, 72 hours; read-out: GI50
Description: as §3, §4

[22] = system: H460 cells; assay: Cell cycle analysis (FACS), H460; assay type: cell-based, human; conditions: H460, 48h
Description: as §2

`C=CC(=O)N1CCC[C@@H](n2nc(-c3ccc(Oc4ccccc4)cc3)c3c(N)ncnc32)C1` [ibrutinib, Ibrutinib] was tested. Which “%G0-G1” value ([1]; H1975, 12h, 0.3 μM) did it give?
The value was 69.44%.

What about the “%G2-M” value ([1]; H1975, 12h, 0.3 μM) of the same molecule?
Its value is 10.92%.

What about the “%G0-G1” value ([1]; H1975, 12h, 3 μM) of the same molecule?
Its value is 74.28%.

And the “%G0-G1” value ([1]; H1975, 24h, 0.3 μM)?
The value was 81.96%.

What about the “%G2-M” value ([1]; H1975, 24h, 0.3 μM) of the same molecule?
The value was 6.76%.

What about the “%G0-G1” value ([1]; H1975, 24h, 3 μM) of the same molecule?
Its value is 86.20%.

And the “%G2-M” value ([1]; H1975, 24h, 3 μM)?
Its value is 4.83%.

What about the “%G0-G1” value ([1]; H1975, 48h, 0.3 μM) of the same molecule?
The value was 92.06%.

And the “%G2-M” value ([1]; H1975, 48h, 0.3 μM)?
Its value is 2.43%.

What about the “%G0-G1” value ([1]; H1975, 48h, 3 μM) of the same molecule?
Its value is 93.79%.

What about the “%G2-M” value ([1]; H1975, 48h, 3 μM) of the same molecule?
The value was 1.31%.

And the GI50 [2]?
Its GI50 is > 10000 nM.

What about the “%G0-G1” value ([3]; 0.3 μM) of the same molecule?
Its value is 82.82%.

What about the “%G2-M” value ([3]; 0.3 μM) of the same molecule?
Its value is 9.73%.

And the “%G0-G1” value ([3]; 3 μM)?
Its value is 89.05%.

What about the “%G2-M” value ([3]; 3 μM) of the same molecule?
Its value is 5.24%.

And the activity at 1.1 µM [4]?
Its activity at 1.1 µM is 52.3%.

And the GI50 [5]?
Its GI50 is 50 nM.

What about the “phosphorylation of Akt Thr308 and Ser473” value [6] of the same molecule?
Its value is “significantly affected the phosphorylation of Akt Thr308 and Ser473”.

And the “anti-tumor activity (tumor progression)” value [7]?
Its value is “tumor progression slow down efficacy”.

And the “enzymatic activity against PI3K kinase” value [8]?
Its value is “did not have apparent enzymatic activity”.

And the GI50 [9]?
Its GI50 is > 10000 nM.

What about the GI50 [10] of the same molecule?
The GI50 was > 10000 nM.

What about the “%G0-G1” value ([11]; 0.3 μM) of the same molecule?
The value was 78.26%.

What about the “%G2-M” value ([11]; 0.3 μM) of the same molecule?
The value was 6.86%.

And the “%G0-G1” value ([11]; 3 μM)?
Its value is 80.37%.

What about the “%G2-M” value ([11]; 3 μM) of the same molecule?
Its value is 5.91%.

And the GI50 [12]?
Its GI50 is 1200 nM.

What about the GI50 [13] of the same molecule?
Its GI50 is > 10000 nM.

What about the GI50 [14] of the same molecule?
The GI50 was > 10000 nM.

What about the “%G0-G1” value ([15]; 0.3 μM) of the same molecule?
The value was 81.91%.

And the “%G2-M” value ([15]; 0.3 μM)?
Its value is 10.77%.

And the “%G0-G1” value ([15]; 3 μM)?
Its value is 84.9%.

What about the “%G2-M” value ([15]; 3 μM) of the same molecule?
Its value is 8.54%.

What about the GI50 [16] of the same molecule?
Its GI50 is 63 nM.

And the “anti-tumor activity (tumor progression)” value ([17]; 50 mg/kg BID oral gavage, 23-day)?
Its value is “slowed down tumor progression”.

What about the “anti-tumor activity, higher dosage versus 50 mg/kg BID” value ([17]; 100 mg/Kg BID) of the same molecule?
The value was “did not improve efficacy”.

And the “H1975 cell lines growth” value ([18]; single agent 0.37 μM)?
The value was 43.77.

What about the “H1975 cell lines growth” value ([18]; single agent 1.1 μM) of the same molecule?
Its value is 34.56.

What about the GI50 [19] of the same molecule?
The GI50 was > 10000 nM.

What about the EC50 [20] of the same molecule?
Its EC50 is 23 to 58 nM.

And the GI50 [21]?
The GI50 was 110 nM.

And the “%G0-G1” value ([22]; 0.3 μM)?
Its value is 69.88%.

What about the “%G2-M” value ([22]; 0.3 μM) of the same molecule?
Its value is 5.02%.

And the “%G0-G1” value ([22]; 3 μM)?
The value was 70.49%.

And the “%G2-M” value ([22]; 3 μM)?
The value was 5.09%.

Source: paper PMC4741607 (Oncotarget, 2015)
